ChEMBL document CHEMBL5126528, “Recent strategies targeting Embryonic Ectoderm Development (EED) for cancer therapy: Allosteric inhibitors, PPI inhibitors, and PROTACs” (Eur J Med Chem, 2022)

Assays:
Lymphoma cell line [1] = assay: Inhibition of cell growth in human Lymphoma cell line bearing wildtype EZH2; type: functional, cell-based
BC [2] = assay: Inhibition of cell growth in human multiple BC cells bearing wildtype EZH2; type: functional, cell-based
BC [3] = assay: Inhibition of cell growth in human multiple BC cells bearing EZH2 […] mutant; type: functional, cell-based
Lymphoma cell line [4] = assay: Inhibition of cell growth in human Lymphoma cell line bearing EZH2 […] mutant; type: functional, cell-based
Polycomb protein EED [5] = molecular target: T1, Polycomb protein EED (Homo sapiens, UniProt O75530); assay: Binding affinity to full length EED (unknown origin) assessed as increase in melting temperature at 50 uM incubated for 30 mins by TSA; details: tested as the 2H-labelled form
Target sequence in this assay (O75530 2-441 limits assumed): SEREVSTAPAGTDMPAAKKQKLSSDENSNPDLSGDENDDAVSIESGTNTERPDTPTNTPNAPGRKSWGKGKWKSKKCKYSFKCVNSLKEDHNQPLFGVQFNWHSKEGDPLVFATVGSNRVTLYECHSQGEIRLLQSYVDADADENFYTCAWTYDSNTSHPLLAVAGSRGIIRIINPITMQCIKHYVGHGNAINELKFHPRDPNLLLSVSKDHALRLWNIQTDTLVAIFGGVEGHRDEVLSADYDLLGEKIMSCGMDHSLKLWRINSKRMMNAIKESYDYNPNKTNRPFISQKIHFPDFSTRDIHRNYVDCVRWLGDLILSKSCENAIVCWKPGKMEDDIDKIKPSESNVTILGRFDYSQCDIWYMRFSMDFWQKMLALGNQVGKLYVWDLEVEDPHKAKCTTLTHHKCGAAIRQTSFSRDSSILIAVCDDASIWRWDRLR

Polycomb protein EED [6] = molecular target: T1, Polycomb protein EED; assay: Binding affinity to full length EED (unknown origin) assessed as increase in melting temperature at 100 uM incubated for 30 mins by TSA; details: tested as the 2H-labelled form
Target sequence in this assay (O75530 2-441 limits assumed): as above

[7] = molecular target: T2, von Hippel-Lindau disease tumor suppressor/Polycomb protein EED (Homo sapiens, UniProt O75530+P40337); assay: Protac activity at VHL/EED in human DB cells assessed as degradation of protein measured after 24 to 72 hrs by Bradford assay kit method relative to control; type: cell-based; details: time 24-72 hrs
Target sequence in this assay (O75530 2-441 limits assumed): as above
Target sequence in this assay (P40337 whole entry partner): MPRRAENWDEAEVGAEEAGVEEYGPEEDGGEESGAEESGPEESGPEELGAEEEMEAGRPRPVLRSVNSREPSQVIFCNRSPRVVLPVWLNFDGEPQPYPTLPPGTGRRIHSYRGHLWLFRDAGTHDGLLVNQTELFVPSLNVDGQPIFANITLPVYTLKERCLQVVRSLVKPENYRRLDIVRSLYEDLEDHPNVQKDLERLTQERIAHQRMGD

Pfeiffer [8] = assay: Antiproliferative activity against human Pfeiffer cells measured after 3 days by tryphan blue staining; type: functional, cell-based; details: 72 h
DB [9] = assay: Antiproliferative activity against human DB cells measured after 9 days by tryphan blue staining; type: functional, cell-based; details: 216 h
DB [10] = assay: Antiproliferative activity against human DB cells assessed as viable cells with replenishment of medium with compound for every three days upto 9 days by trypan blue staining based automated bio-rad TC20 cell counter method; type: functional
[11] = molecular target: T3, von Hippel-Lindau disease tumor suppressor/Histone-lysine N-methyltransferase EZH2 (Homo sapiens, UniProt Q15910+P40337); assay: Protac activity at VHL/EZH2 in human DB cells assessed as degradation of protein measured after 24 to 72 hrs by Bradford assay kit method relative to control; type: cell-based; details: time 24-72 hrs
Target sequence in this assay (P40337 whole entry, looked up): as the sequence (P40337 whole entry partner) above
Target sequence in this assay (Q15910 whole entry, looked up): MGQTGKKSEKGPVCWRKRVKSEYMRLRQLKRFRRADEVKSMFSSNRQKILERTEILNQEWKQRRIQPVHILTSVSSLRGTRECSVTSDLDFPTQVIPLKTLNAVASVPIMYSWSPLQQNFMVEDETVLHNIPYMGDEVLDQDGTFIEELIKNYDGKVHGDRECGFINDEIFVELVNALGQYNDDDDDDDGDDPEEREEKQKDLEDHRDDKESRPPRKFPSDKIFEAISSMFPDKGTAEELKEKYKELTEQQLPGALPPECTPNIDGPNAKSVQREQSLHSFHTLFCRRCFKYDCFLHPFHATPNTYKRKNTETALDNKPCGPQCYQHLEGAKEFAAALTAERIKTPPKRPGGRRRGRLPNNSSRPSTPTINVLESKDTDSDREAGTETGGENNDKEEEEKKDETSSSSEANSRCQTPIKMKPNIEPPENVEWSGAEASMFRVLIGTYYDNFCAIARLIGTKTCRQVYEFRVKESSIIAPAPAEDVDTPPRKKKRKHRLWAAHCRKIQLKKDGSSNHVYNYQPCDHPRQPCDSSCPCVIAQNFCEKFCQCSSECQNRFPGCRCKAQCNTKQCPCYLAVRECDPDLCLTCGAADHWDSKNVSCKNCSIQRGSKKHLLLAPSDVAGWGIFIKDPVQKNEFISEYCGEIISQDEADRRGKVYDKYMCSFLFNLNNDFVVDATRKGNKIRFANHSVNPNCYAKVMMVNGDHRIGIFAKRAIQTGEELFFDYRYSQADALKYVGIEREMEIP

[12] = molecular target: T3, von Hippel-Lindau disease tumor suppressor/Histone-lysine N-methyltransferase EZH2; assay: Protac activity at VHL/EZH2 in human DB cells assessed as degradation of protein measured after 24 to 72 hrs by Bradford assay kit method; type: cell-based
Target sequence in this assay (Q15910 whole entry): as the sequence (Q15910 whole entry, looked up) above
Target sequence in this assay (P40337 whole entry): as the sequence (P40337 whole entry partner) above

[13] = molecular target: Histone-lysine N-methyltransferase EZH2 (Homo sapiens, UniProt Q15910); assay: Inhibition of EZH2 (unknown origin)
[14] = molecular target: T4, von Hippel-Lindau disease tumor suppressor/Polycomb protein SUZ12 (Homo sapiens, UniProt Q15022+P40337); assay: Protac activity at VHL/SUZ12 in human DB cells assessed as degradation of protein measured after 24 to 72 hrs by Bradford assay kit method; type: cell-based
Target sequence in this assay (Q15022 whole entry): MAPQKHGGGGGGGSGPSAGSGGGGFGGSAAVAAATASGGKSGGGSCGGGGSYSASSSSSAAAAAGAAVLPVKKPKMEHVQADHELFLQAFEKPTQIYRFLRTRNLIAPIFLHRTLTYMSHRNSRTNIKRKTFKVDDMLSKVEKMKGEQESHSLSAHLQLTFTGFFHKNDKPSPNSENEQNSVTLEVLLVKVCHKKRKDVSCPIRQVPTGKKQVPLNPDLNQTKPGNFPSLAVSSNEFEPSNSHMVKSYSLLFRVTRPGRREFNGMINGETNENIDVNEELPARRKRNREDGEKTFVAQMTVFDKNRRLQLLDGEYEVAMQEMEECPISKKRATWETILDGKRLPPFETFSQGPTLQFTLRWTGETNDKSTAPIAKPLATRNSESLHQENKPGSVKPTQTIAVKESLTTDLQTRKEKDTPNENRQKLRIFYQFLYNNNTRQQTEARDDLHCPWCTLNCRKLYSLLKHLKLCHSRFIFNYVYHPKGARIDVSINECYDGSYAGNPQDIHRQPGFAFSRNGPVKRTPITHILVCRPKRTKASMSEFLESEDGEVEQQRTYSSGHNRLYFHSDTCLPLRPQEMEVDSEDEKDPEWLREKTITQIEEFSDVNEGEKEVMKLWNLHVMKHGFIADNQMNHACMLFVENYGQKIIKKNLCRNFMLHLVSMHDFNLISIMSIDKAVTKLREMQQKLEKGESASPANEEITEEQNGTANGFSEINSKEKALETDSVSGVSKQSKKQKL
Target sequence in this assay (P40337 whole entry): as the sequence (P40337 whole entry partner) above

[15] = molecular target: T2, von Hippel-Lindau disease tumor suppressor/Polycomb protein EED; assay: Protac activity at VHL/EED in human HeLa cells assessed as degradation of protein measured after 24 hrs by Bradford assay kit method; type: cell-based
Target sequence in this assay (O75530 whole entry): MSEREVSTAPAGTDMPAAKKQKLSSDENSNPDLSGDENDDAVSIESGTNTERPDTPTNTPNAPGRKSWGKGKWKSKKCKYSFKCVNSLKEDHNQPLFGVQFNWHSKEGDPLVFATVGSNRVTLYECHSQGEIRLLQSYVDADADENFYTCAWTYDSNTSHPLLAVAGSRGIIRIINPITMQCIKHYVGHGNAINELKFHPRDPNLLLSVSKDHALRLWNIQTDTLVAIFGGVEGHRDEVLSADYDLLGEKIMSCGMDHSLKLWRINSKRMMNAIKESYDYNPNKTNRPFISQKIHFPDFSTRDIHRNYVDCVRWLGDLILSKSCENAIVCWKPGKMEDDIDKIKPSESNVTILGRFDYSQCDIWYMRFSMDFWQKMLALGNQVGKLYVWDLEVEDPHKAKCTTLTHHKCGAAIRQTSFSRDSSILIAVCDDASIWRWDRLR
Target sequence in this assay (P40337 whole entry): as the sequence (P40337 whole entry partner) above

[16] = molecular target: T2, von Hippel-Lindau disease tumor suppressor/Polycomb protein EED; assay: Protac activity at VHL/EED in human DB cells assessed as degradation of protein measured after 24 to 72 hrs by Bradford assay kit method; type: cell-based
Target sequence in this assay (O75530 whole entry): as the sequence (O75530 whole entry) above
Target sequence in this assay (P40337 whole entry): as the sequence (P40337 whole entry partner) above

Pfeiffer [17] = assay: Antiproliferative activity against human Pfeiffer cells assessed as viable cells with replenishment of medium with compound for every three days upto 6 days by trypan blue staining based automated bio-rad TC20 cell counter method; type: functional
[18] = molecular target: T4, von Hippel-Lindau disease tumor suppressor/Polycomb protein SUZ12; assay: Protac activity at VHL/SUZ12 in human DB cells assessed as degradation of protein measured after 24 to 72 hrs by Bradford assay kit method relative to control; type: cell-based; details: time 24-72 hrs
Target sequence in this assay (P40337 whole entry, looked up): as the sequence (P40337 whole entry partner) above
Target sequence in this assay (Q15022 whole entry, looked up): as the sequence (Q15022 whole entry) above

[19] = molecular target: T3, von Hippel-Lindau disease tumor suppressor/Histone-lysine N-methyltransferase EZH2; assay: Protac activity at VHL/EZH2 in human HeLa cells assessed as degradation of protein measured after 24 hrs by Bradford assay kit method; type: cell-based
Target sequence in this assay (Q15910 whole entry): as the sequence (Q15910 whole entry, looked up) above
Target sequence in this assay (P40337 whole entry): as the sequence (P40337 whole entry partner) above

[20] = molecular target: T4, von Hippel-Lindau disease tumor suppressor/Polycomb protein SUZ12; assay: Protac activity at VHL/SUZ12 in human HeLa cells assessed as degradation of protein measured after 24 hrs by […] relative to control; type: cell-based
Target sequence in this assay (P40337 whole entry, looked up): as the sequence (P40337 whole entry partner) above
Target sequence in this assay (Q15022 whole entry, looked up): as the sequence (Q15022 whole entry) above

[21] = Inhibition of PRC2 HMTase activity in human G-401 cells using nucleosome core particles as substrate in presence of activation peptide H3K27me3 (21 to 44 residues)
Polycomb protein EED [22] = molecular target: T1, Polycomb protein EED; assay: Inhibition of EED (unknown origin)
Target sequence in this assay (O75530 whole entry): as the sequence (O75530 whole entry) above

[23] = Oral bioavailability in CD-1 mouse; type: ADME, organism-based; details: in vivo
Polycomb protein EED [24] = molecular target: T1, Polycomb protein EED; assay: Inhibition of human N-terminal His-6 tagged EED expressed in Escherichia coli strain […] by SPR analysis
Target sequence in this assay (O75530 whole entry): as above

KARPAS-422 [25] = assay: Antiproliferative activity against human KARPAS-422 cells assessed as cell growth inhibition measured after 7 to 10 days by celltitre-glo-luminescent assay; type: functional; details: time 7-10 day
Polycomb protein EED [26] = molecular target: T1, Polycomb protein EED; assay: Binding affinity to human N-terminal His-6 tagged EED expressed in Escherichia coli strain […] by SPR analysis
Target sequence in this assay (O75530 whole entry): as above

Polycomb protein EED [27] = molecular target: T1, Polycomb protein EED; details: dose 500.0 µM
Target sequence in this assay (O75530 2-441 limits assumed): as the sequence (O75530 2-441 limits assumed) above
Description: Binding affinity to GST-tagged EED (unknown origin) assessed as thermal stability by measuring melting temperature at 500 uM by TSA method

KARPAS-422 [28] = assay: Antitumor activity against human KARPAS-422 cells assessed as tumor growth inhibition at 100 mg/kg, po, bid for 38 days relative to control; type: functional; details: KARPAS-422, 912 h, time 38 day, read-out: TGI
KARPAS-422 [29] = assay: Antitumor activity against human KARPAS-422 cells xenografted in NOD/SCID mouse assessed as tumor growth inhibition at 100 mg/kg, bid, po for 36 days relative to control; type: functional; details: KARPAS-422, 864 h, time 36 day, read-out: TGI
KARPAS-422 [30] = assay: Antitumor activity against human KARPAS-422 cells xenografted in NOD/SCID mouse assessed as tumor growth inhibition at 40 mg/kg, bid, po for 36 days relative to control; type: functional; details: KARPAS-422, 864 h, time 36 day, read-out: TGI
Pfeiffer [31] = assay: Antitumor activity against human Pfeiffer cells xenografted in NOD/SCID mouse assessed as tumor growth inhibition at 100 mg/kg, bid, po for 36 days relative to control; type: functional; details: 864 h, time 36 day, read-out: TGI
Pfeiffer [32] = assay: Antitumor activity against human Pfeiffer cells xenografted in NOD/SCID mouse assessed as tumor growth inhibition at 40 mg/kg, bid, po for 36 days relative to control; type: functional; details: 864 h, time 36 day, read-out: TGI
Pfeiffer [33] = assay: Antitumor activity against human Pfeiffer cells assessed as tumor growth inhibition at 100 mg/kg, po, bid for 38 days relative to control; type: functional; details: 912 h, time 38 day, read-out: TGI
[34] = Antitumor activity against […] cells xenografted in mouse assessed as tumor growth inhibition at 30 mg/kg relative to control; type: functional; details: read-out: TGI
Polycomb protein EED [35] = molecular target: T1, Polycomb protein EED; assay: Inhibition of His-tagged EED (unknown origin) incubated for 30 mins in presence of biotinylated H3K27me3 peptide (19 to 33 aa) by alpha screening competitive binding assay method
Target sequence in this assay (O75530 whole entry): as the sequence (O75530 whole entry) above

LNCaP C4-2B [36] = assay: Antiproliferative activity against human LNCaP C4-2B cells
[37] = Antiproliferative activity against human ARCaP cells expressing sh RNA EPLIN
LNCaP C4-2B [38] = assay: Antiproliferative activity against human LNCaP C4-2B cells expressing TaxR
LNCaP C4-2 = assay: Antiproliferative activity against human LNCaP C4-2 cells
[39] = Antiproliferative activity against human ARCaPE cells expressing sh Ctrl; details: ARCaP

Sequence of Histone-lysine N-methyltransferase EZH2 (Q15910 whole entry): as the sequence (Q15910 whole entry, looked up) above

## C=CC(=O)Nc1cc(Nc2nccc(-c3cn(C)c4ccccc34)n2)c(OC)cc1N(C)CCN(C)C [OSIMERTINIB]
Lymphoma cell line [1]
  IC50: 15 nM
BC [2]
  IC50: 15 nM
BC [3]
  IC50: 15 nM
Lymphoma cell line [4]
  IC50: 15 nM

## Cc1ncccc1-c1cnc(NCc2c(F)ccc3c2CCO3)n(C)c1=O
Polycomb protein EED [5]
  ΔTm: 6 °C
Polycomb protein EED [6]
  ΔTm: 10 °C

## Cc1ncsc1-c1ccc(CNC(=O)[C@@H]2C[C@@H](O)CN2C(=O)[C@@H](NC(=O)CCCNC(=O)c2ccc(-c3cnc(NCc4ccco4)n4cnnc34)cc2)C(C)(C)C)cc1
[7]
  Emax: 94%
Pfeiffer [8]
  IC50: 410 nM
DB [9]
  EC50: 3.4 µM
DB [10]
  EC50: 3.4 µM
[11]
  Emax: 96%
[12]
  DC50: 670 nM
[13]
  IC50: 300 nM
[14]
  DC50: 590 nM
[15]
  DC50: 790 nM
[16]
  DC50: 610 nM
Pfeiffer [17]
  EC50: 410 nM
[18]
  Emax: 82%
[19]
  DC50: 300 nM
[20]
  Emax: 22%

## CS(=O)(=O)c1ccc(-c2cnc(NCc3ccco3)n3cnnc23)cc1
[21]
  IC50: 220 nM
Polycomb protein EED [22]
  IC50: 20 nM
[23]
  F: 10%

## Cc1nc(CCC(=O)NCCCCC(=O)N[C@H](C(=O)N2C[C@H](O)C[C@H]2C(=O)NCc2ccc(-c3scnc3C)cc2)C(C)(C)C)ccc1-c1cnc(NCc2c(F)ccc3c2CCO3)n2cnnc12
Polycomb protein EED [24]
  IC50: 7.76 nM
KARPAS-422 [25]
  GI50: 57 nM
Polycomb protein EED [26]
  Kd: 0.537 nM

## CN(C)[C@@H]1CN(C2CCc3cccc(F)c32)C[C@H]1c1ccc(N2CCN(S(C)(=O)=O)CC2)cc1 (some centres undefined)
Polycomb protein EED [27]
  ΔTm: 18 °C

## Cc1ncsc1-c1ccc(CNC(=O)[C@@H]2C[C@@H](O)CN2C(=O)[C@@H](NC(=O)COc2ccc(OCCNC(=O)CCc3ccc(-c4cnc(NCc5c(F)ccc6c5CCO6)n5cnnc45)c(N)n3)cc2)C(C)(C)C)cc1
Polycomb protein EED [24]
  IC50: 6.76 nM
KARPAS-422 [25]
  GI50: 45 nM
Polycomb protein EED [26]
  Kd: 0.631 nM

## [2H]C([2H])(Nc1ncc(-c2cccnc2C)c(=O)n1C)c1c(F)ccc2c1CCO2
KARPAS-422 [28]
  inhibition in vivo at 100 mg/kg: 85%
Polycomb protein EED [22]
  IC50: 4.5 nM
KARPAS-422 [29]
  inhibition in vivo at 100 mg/kg: 85%
KARPAS-422 [30]
  inhibition in vivo at 40 mg/kg: 75%
Pfeiffer [31]
  inhibition in vivo at 100 mg/kg: 96%
Pfeiffer [32]
  inhibition in vivo at 40 mg/kg: 83%
Pfeiffer [33]
  inhibition in vivo at 100 mg/kg: 96%
[34]
  inhibition in vivo at 30 mg/kg: 59.3%
Polycomb protein EED [35]
  IC50: 4.5 nM

## CCOP(=O)(OCC)C(NC(=O)[C@H](Cc1ccc(-c2ccccc2)cc1)NC(=O)/C=C/c1ccc(-c2ccccc2)cc1)P(=O)(OCC)OCC
LNCaP C4-2B [36]
  IC50: 91.1 µM
[37]
  IC50: 260 nM
LNCaP C4-2B [38]
  IC50: 6.87 µM
LNCaP C4-2
  IC50: 56.1 µM
[39]
  IC50: 64.9 µM
